Key:
Experiment in all cases: biochemical
Design in all cases: KINOMEscan competition binding assay, kinase captured on immobilized ligand, per cent of DMSO control
Settings in all cases: read-out: % Ctrl
TIE2 = biological target: T1, TIE2 (Homo sapiens, UniProt Q02763)
T1 construct: gene TEK
Method: (§1) Competition binding assays were performed by DiscoverX (Freemont, CA, USA). […] S-Score^35 = (number of non-mutant kinases with %Ctrl < 35)/(number of non-mutant kinases tested). […] Kds are calculated […] by measuring the amount of kinase captured on the solid support as a function of the test compound concentration (n = 2, mean ± range).

TLK1 = TLK1 (Homo sapiens, UniProt Q9UKI8)
Method: as §1

TLK2 = TLK2 (Homo sapiens, UniProt Q86UE8)
Method: as §1

TNIK = TNIK (Homo sapiens, UniProt Q9UKE5)
Method: as §1

TNK1 = TNK1 (Homo sapiens, UniProt Q13470)
Method: as §1

TNK2 = TNK2 (Homo sapiens, UniProt Q07912)
Method: as §1

TNNI3K = TNNI3K (Homo sapiens, UniProt Q59H18)
Method: as §1

TRKA = biological target: T2, TRKA (Homo sapiens, UniProt P04629)
T2 construct: gene NTRK1
Method: as §1

TRKB = biological target: T3, TRKB (Homo sapiens, UniProt Q16620)
T3 construct: gene NTRK2
Method: as §1

TRKC = biological target: T4, TRKC (Homo sapiens, UniProt Q16288)
T4 construct: gene NTRK3
Method: as §1

TRPM6 = TRPM6 (Homo sapiens, UniProt Q9BX84)
Method: as §1

TSSK1B = TSSK1B (Homo sapiens, UniProt Q9BXA7)
Method: as §1

TTK = TTK (Homo sapiens, UniProt P33981)
Method: as §1

TXK = TXK (Homo sapiens, UniProt P42681)
Method: as §1

[1] = biological target: T5, TYK2(JH1domain-catalytic) (Homo sapiens, UniProt P29597)
T5 construct: JH1domain-catalytic
Method: as §1

[2] = biological target: T6, TYK2(JH2domain-pseudokinase) (Homo sapiens, UniProt P29597)
T6 construct: JH2domain-pseudokinase
Method: as §1

TYRO3 = TYRO3 (Homo sapiens, UniProt Q06418)
Method: as §1

ULK1 = ULK1 (Homo sapiens, UniProt O75385)
Method: as §1

ULK2 = ULK2 (Homo sapiens, UniProt Q8IYT8)
Method: as §1

ULK3 = ULK3 (Homo sapiens, UniProt Q6PHR2)
Method: as §1

VEGFR2 = biological target: T7, VEGFR2 (Homo sapiens, UniProt P35968)
T7 construct: gene KDR
Method: as §1

VRK2 = VRK2 (Homo sapiens, UniProt Q86Y07)
Method: as §1

WEE1 = WEE1 (Homo sapiens, UniProt P30291)
Method: as §1

WEE2 = WEE2 (Homo sapiens, UniProt P0C1S8)
Method: as §1

WNK1 = WNK1 (Homo sapiens, UniProt Q9H4A3)
Method: as §1

WNK3 = WNK3 (Homo sapiens, UniProt Q9BYP7)
Method: as §1

YANK1 = biological target: T8, YANK1 (Homo sapiens, UniProt Q8WU08)
T8 construct: gene STK32A
Method: as §1

YANK2 = biological target: T9, YANK2 (Homo sapiens, UniProt Q9NY57)
T9 construct: gene STK32B
Method: as §1

YANK3 = biological target: T10, YANK3 (Homo sapiens, UniProt Q86UX6)
T10 construct: gene STK32C
Method: as §1

YES = biological target: T11, YES (Homo sapiens, UniProt P07947)
T11 construct: gene YES1
Method: as §1

YSK1 = biological target: T12, YSK1 (Homo sapiens, UniProt O00506)
T12 construct: gene STK25
Method: as §1

YSK4 = biological target: T13, YSK4 (Homo sapiens, UniProt Q56UN5)
T13 construct: gene MAP3K19
Method: as §1

ZAK = biological target: T14, ZAK (Homo sapiens, UniProt Q9NYL2)
T14 construct: gene MAP3K20
Method: as §1

ZAP70 = ZAP70 (Homo sapiens, UniProt P43403)
Method: as §1

Sequence of TTK (P33981 whole entry): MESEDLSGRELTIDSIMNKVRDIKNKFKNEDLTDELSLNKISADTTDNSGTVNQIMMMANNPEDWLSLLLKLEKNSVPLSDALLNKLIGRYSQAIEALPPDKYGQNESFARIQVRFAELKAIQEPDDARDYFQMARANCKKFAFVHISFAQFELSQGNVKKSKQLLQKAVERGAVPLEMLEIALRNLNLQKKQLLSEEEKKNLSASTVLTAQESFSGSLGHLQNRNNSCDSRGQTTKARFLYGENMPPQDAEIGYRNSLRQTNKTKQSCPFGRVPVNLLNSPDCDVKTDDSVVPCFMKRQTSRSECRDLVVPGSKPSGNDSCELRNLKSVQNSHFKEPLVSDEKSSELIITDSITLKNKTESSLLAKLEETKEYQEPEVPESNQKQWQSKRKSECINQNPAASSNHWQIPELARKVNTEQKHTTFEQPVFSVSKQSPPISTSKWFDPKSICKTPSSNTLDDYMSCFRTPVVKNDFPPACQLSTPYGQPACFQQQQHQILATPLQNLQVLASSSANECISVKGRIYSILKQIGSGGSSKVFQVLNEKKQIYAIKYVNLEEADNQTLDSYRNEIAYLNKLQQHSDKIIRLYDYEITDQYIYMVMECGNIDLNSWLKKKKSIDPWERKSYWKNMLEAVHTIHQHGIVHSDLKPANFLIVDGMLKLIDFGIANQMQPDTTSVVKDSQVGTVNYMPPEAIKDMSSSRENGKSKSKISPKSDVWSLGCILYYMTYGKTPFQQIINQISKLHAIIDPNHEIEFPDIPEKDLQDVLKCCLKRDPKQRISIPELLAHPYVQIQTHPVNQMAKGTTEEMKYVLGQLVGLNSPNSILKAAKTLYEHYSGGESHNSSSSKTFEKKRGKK
Sequence of WNK1 (Q9H4A3 whole entry): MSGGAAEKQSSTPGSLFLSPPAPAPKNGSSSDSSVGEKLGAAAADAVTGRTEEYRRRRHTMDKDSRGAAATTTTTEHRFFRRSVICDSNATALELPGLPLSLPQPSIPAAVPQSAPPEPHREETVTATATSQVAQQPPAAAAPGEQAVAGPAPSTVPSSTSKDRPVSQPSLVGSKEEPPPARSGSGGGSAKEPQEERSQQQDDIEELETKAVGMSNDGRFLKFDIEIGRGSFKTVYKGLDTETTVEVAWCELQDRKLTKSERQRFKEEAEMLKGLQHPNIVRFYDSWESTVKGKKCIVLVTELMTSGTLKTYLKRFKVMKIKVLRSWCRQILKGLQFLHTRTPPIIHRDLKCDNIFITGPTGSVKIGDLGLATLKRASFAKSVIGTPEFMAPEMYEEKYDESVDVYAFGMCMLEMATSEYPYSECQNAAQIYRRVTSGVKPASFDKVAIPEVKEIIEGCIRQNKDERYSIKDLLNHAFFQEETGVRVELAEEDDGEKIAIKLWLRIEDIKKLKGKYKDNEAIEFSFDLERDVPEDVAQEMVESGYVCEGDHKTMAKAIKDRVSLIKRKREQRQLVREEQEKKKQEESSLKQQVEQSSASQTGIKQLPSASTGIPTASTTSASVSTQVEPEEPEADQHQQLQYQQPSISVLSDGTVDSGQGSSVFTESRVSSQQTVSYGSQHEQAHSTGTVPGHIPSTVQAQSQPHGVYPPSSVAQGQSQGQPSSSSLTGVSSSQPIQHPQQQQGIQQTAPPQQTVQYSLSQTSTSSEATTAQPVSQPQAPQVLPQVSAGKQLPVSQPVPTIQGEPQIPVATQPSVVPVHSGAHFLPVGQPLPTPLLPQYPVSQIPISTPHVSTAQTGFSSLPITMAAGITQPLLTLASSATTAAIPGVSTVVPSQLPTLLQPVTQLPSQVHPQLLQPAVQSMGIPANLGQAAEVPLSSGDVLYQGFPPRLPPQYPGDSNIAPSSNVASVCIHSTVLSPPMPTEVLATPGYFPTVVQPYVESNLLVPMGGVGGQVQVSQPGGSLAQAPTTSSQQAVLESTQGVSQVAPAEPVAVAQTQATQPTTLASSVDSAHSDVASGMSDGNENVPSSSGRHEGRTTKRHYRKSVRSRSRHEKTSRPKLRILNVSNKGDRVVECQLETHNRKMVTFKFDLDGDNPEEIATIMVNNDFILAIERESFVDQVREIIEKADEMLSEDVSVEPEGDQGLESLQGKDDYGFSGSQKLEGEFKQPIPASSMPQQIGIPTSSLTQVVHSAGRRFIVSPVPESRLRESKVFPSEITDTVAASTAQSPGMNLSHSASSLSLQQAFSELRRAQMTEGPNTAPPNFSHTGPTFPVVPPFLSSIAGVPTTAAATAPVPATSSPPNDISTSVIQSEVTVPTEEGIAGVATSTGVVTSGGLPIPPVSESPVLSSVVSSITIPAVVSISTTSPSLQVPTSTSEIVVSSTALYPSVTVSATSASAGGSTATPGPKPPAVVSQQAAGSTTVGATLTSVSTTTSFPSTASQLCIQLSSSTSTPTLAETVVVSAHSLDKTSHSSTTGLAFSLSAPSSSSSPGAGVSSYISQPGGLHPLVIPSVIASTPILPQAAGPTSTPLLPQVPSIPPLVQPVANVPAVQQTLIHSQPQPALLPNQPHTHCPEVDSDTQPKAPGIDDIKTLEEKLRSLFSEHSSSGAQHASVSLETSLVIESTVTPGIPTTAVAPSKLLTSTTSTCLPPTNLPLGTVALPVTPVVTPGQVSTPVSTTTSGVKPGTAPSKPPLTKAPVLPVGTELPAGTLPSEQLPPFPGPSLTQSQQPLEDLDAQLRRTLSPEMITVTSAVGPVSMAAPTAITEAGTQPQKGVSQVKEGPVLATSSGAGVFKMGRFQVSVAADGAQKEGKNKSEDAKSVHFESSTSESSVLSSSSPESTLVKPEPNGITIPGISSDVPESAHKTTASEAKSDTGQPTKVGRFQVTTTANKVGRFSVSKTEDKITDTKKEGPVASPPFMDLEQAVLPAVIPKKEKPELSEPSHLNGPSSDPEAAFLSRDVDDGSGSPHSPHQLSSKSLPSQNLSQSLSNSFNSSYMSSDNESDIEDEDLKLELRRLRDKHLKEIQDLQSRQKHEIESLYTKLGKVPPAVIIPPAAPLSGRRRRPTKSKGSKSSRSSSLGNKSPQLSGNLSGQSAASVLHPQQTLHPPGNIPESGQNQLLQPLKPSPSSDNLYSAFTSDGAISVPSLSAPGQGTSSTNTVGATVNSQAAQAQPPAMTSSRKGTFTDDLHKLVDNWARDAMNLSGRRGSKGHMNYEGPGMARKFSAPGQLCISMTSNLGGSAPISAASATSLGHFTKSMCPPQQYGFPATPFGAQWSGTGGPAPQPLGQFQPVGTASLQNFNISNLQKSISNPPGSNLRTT
T10 sequence (Q86UX6 whole entry): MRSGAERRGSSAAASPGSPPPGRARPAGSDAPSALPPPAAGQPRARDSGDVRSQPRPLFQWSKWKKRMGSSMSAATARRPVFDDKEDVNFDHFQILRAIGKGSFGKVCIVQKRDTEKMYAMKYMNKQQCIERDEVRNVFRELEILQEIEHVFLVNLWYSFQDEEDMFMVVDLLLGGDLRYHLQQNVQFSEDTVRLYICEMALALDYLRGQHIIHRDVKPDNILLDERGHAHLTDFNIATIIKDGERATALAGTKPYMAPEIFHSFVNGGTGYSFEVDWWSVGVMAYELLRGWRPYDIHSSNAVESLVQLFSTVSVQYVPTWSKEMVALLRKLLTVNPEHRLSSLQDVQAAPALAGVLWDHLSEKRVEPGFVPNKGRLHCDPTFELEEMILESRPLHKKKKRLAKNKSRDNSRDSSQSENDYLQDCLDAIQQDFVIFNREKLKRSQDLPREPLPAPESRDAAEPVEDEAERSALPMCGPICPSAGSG
Sequence of TXK (P42681 whole entry): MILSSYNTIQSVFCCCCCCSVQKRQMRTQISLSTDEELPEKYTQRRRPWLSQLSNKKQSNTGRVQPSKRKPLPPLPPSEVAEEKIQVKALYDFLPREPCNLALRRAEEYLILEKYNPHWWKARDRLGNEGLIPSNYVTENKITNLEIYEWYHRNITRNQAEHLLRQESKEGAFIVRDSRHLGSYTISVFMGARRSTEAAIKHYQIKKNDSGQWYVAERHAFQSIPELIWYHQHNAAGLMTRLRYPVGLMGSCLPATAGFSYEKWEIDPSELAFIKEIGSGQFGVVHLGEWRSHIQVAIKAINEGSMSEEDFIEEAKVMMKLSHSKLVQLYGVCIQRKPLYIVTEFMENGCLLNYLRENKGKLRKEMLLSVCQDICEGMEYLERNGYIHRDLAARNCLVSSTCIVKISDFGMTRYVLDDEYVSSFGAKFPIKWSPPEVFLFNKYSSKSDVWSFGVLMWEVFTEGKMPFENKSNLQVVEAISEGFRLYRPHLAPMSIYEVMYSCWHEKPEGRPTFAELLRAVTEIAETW
Sequence of TSSK1B (Q9BXA7 whole entry): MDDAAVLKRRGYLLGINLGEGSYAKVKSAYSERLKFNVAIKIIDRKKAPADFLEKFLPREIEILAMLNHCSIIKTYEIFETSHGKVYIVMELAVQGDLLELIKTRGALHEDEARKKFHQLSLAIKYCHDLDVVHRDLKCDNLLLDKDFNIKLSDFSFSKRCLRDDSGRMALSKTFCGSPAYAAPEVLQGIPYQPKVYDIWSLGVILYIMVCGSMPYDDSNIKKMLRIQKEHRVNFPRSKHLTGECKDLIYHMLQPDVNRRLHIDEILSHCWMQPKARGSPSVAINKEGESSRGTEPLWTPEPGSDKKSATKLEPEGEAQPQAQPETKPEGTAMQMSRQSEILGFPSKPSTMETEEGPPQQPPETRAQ
T8 sequence (Q8WU08 whole entry): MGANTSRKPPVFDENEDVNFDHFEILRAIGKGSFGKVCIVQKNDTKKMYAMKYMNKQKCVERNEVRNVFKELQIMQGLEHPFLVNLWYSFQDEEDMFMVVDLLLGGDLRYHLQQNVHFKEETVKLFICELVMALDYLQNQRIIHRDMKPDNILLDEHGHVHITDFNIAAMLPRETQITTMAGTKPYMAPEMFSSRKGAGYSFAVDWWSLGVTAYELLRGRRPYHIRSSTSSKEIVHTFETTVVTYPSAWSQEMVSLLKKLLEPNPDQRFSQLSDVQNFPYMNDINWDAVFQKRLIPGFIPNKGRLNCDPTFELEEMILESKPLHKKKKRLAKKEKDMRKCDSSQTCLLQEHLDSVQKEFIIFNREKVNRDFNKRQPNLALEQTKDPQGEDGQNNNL

`COc1cc(O)c2c(c1)OC(O)(c1ccc(OCc3ccccc3)cc1)CC2=O` (stereo not shown) [6E11, 2-(4-(benzyloxy)phenyl)-2,5-dihydroxy-7-methoxychroman-4-one] was tested. Which percent of control binding at 10 µM (TIE2) did it give?
Its percent of control binding at 10 µM is 100%.

And the percent of control binding at 10 µM (TLK1)?
The percent of control binding at 10 µM was 100%.

What about the percent of control binding at 10 µM (TLK2) of the same compound?
Its percent of control binding at 10 µM is 83%.

And the percent of control binding at 10 µM (TNIK)?
Its percent of control binding at 10 µM is 85%.

What about the percent of control binding at 10 µM (TNK1) of the same compound?
The percent of control binding at 10 µM was 88%.

And the percent of control binding at 10 µM (TNK2)?
Its percent of control binding at 10 µM is 92%.

What about the percent of control binding at 10 µM (TNNI3K) of the same compound?
Its percent of control binding at 10 µM is 98%.

What about the percent of control binding at 10 µM (TRKA) of the same compound?
The percent of control binding at 10 µM was 93%.

And the percent of control binding at 10 µM (TRKB)?
The percent of control binding at 10 µM was 100%.

And the percent of control binding at 10 µM (TRKC)?
Its percent of control binding at 10 µM is 100%.

What about the percent of control binding at 10 µM (TRPM6) of the same compound?
The percent of control binding at 10 µM was 60%.

What about the percent of control binding at 10 µM (TSSK1B) of the same compound?
The percent of control binding at 10 µM was 83%.

And the percent of control binding at 10 µM (TTK)?
Its percent of control binding at 10 µM is 99%.

And the percent of control binding at 10 µM (TXK)?
Its percent of control binding at 10 µM is 100%.

And the percent of control binding at 10 µM [1]?
Its percent of control binding at 10 µM is 97%.

What about the percent of control binding at 10 µM [2] of the same compound?
The percent of control binding at 10 µM was 86%.

And the percent of control binding at 10 µM (TYRO3)?
The percent of control binding at 10 µM was 93%.

What about the percent of control binding at 10 µM (ULK1) of the same compound?
Its percent of control binding at 10 µM is 79%.

And the percent of control binding at 10 µM (ULK2)?
The percent of control binding at 10 µM was 98%.

What about the percent of control binding at 10 µM (ULK3) of the same compound?
Its percent of control binding at 10 µM is 71%.

What about the percent of control binding at 10 µM (VEGFR2) of the same compound?
Its percent of control binding at 10 µM is 82%.

And the percent of control binding at 10 µM (VRK2)?
The percent of control binding at 10 µM was 58%.

And the percent of control binding at 10 µM (WEE1)?
The percent of control binding at 10 µM was 82%.

And the percent of control binding at 10 µM (WEE2)?
The percent of control binding at 10 µM was 88%.

And the percent of control binding at 10 µM (WNK1)?
Its percent of control binding at 10 µM is 61%.

And the percent of control binding at 10 µM (WNK3)?
Its percent of control binding at 10 µM is 50%.

What about the percent of control binding at 10 µM (YANK1) of the same compound?
The percent of control binding at 10 µM was 60%.

And the percent of control binding at 10 µM (YANK2)?
Its percent of control binding at 10 µM is 84%.

What about the percent of control binding at 10 µM (YANK3) of the same compound?
The percent of control binding at 10 µM was 72%.

And the percent of control binding at 10 µM (YES)?
Its percent of control binding at 10 µM is 87%.

And the percent of control binding at 10 µM (YSK1)?
The percent of control binding at 10 µM was 88%.

What about the percent of control binding at 10 µM (YSK4) of the same compound?
Its percent of control binding at 10 µM is 81%.

And the percent of control binding at 10 µM (ZAK)?
The percent of control binding at 10 µM was 100%.

And the percent of control binding at 10 µM (ZAP70)?
Its percent of control binding at 10 µM is 100%.

Reference: paper PMC5635128 (Scientific Reports, 2017)
